{
  "source": "patent US20150267232A1",
  "about": "“IN VIVO AND IN VITRO CARBENE INSERTION AND NITRENE TRANSFER REACTIONS CATALYZED BY HEME ENZYMES” (California Institute of Technology, priority 2012, published 2015)",
  "assay": "P450/hemin reactions with azide 8 under anaerobic conditions (C—H amination)",
  "assay_type": "biochemical",
  "text": "Benzosultam 9 (a), arylsulfonamide 13 (c), alcohol 14 (b), alkene 15 and dimer 16 (d) are defined in FIG. 13. […] B1SYN (e.g., P450BM3 with 23 amino acid substitutions) catalyzed about 45 TTN for form the benzosultam.\nSmall-Scale Amination Reactions Under Anaerobic Conditions.\nReaction conditions were as described herein and analyzed by reverse-phase LC-MS (Agilent 1100 series LC-MSD), acetonitrile-water, using a C18 column (Peeke Scientific, Kromasil 100 5 μm, 50×4.6 mm ID). Acetonitrile gradient for 2-isopropylbenzenesulfonyl azide reactions: 10-22% (8 min), 22-60% (10 min), 60% (2 min), at 1.5 mL min^−1. Retention times: alcohol 10 (6.3 min), sulfonamide 2 (10.6 min), dimer 4 (12.3 min), azide 1 (17.6 min).",
  "data": [
    {"substance": "hemin", "values": [
      {"measurement": "TTN arylsulfonamide 13", "setting": "1 mol %, 2 mM NADPH", "result": 1},
      {"measurement": "TTN benzosultam 9", "setting": "1 mol %, 2 mM NADPH", "result": 0},
      {"measurement": "arylsulfonamide 13 (% yield)", "setting": "1 mol %, 2 mM NADPH", "result": "(1) %"},
      {"measurement": "TTN arylsulfonamide 13", "setting": "1 mol %, 2 mM Na2S2O4", "result": 1},
      {"measurement": "TTN benzosultam 9", "setting": "1 mol %, 2 mM Na2S2O4", "result": 4},
      {"measurement": "arylsulfonamide 13 (% yield)", "setting": "1 mol %, 2 mM Na2S2O4", "result": "(1) %"},
      {"measurement": "benzosultam 9 (% yield)", "setting": "1 mol %, 2 mM Na2S2O4", "result": "(4) %"},
      {"measurement": "TTN arylsulfonamide 13", "setting": "1 mol %, 10 mM Na2S2O4", "result": 23},
      {"measurement": "TTN benzosultam 9", "setting": "1 mol %, 10 mM Na2S2O4", "result": 61},
      {"measurement": "arylsulfonamide 13 (% yield)", "setting": "1 mol %, 10 mM Na2S2O4", "result": "(23) %"},
      {"measurement": "benzosultam 9 (% yield)", "setting": "1 mol %, 10 mM Na2S2O4", "result": "(61) %"},
      {"measurement": "TTN arylsulfonamide 13", "setting": "1 mol %, reductant None", "result": 0},
      {"measurement": "TTN benzosultam 9", "setting": "1 mol %, reductant None", "result": 0},
      {"measurement": "TTN arylsulfonamide 13", "setting": "10 mol %, 2 mM Na2S2O4", "result": 0},
      {"measurement": "TTN benzosultam 9", "setting": "10 mol %, 2 mM Na2S2O4", "result": 0},
      {"measurement": "TTN arylsulfonamide 13", "setting": "10 mol %, 10 mM Na2S2O4", "result": 3},
      {"measurement": "TTN benzosultam 9", "setting": "10 mol %, 10 mM Na2S2O4", "result": 4},
      {"measurement": "arylsulfonamide 13 (% yield)", "setting": "10 mol %, 10 mM Na2S2O4", "result": "(30) %"},
      {"measurement": "benzosultam 9 (% yield)", "setting": "10 mol %, 10 mM Na2S2O4", "result": "(40) %"}
    ]}
  ]
}
